The test concerns the target T1, SBC2 (Homo sapiens, UniProt O14508).
T1 construct: SOCS2 (amino acids 32–198); His6 (N, cleaved yes); made in house; host or cells: E. coli BL21(DE3)
The test can be described thus: Isothermal titration calorimetry (ITC), direct titration. It is filed as binding. As to the method: Experiments were performed with ITC200 instrument (Malvern) in 100 mM HEPES pH 7.5, 50 mM NaCl, 0.5 mM TCEP at 298 K. The ITC titration consisted of 0.4 μl initial injection (discarded during data analysis) followed by 19 of 2 μl injections at 120 s interval between injections. 1 mM of the ligands in 2–4% DMSO were titrated into 100 μM SBC2. […] Binding data was subtracted from a control titration where ligand was titrated into buffer, and fitted using a one-set-of-site binding model to obtain dissociation constant (Kd), binding enthalpy (ΔH), and stoichiometry (N) using MicroCal PEAQ-ITC Analysis Software1.1.0.1262 and MicroCal ITC-ORIGIN Analysis Software 7.0 (Malvern).

The results in this text go back to article PMC10564737, “Structure-based design of a phosphotyrosine-masked covalent ligand targeting the E3 ligase SOCS2” (Nature Communications, 2023).

T1 sequence (O14508 32-198): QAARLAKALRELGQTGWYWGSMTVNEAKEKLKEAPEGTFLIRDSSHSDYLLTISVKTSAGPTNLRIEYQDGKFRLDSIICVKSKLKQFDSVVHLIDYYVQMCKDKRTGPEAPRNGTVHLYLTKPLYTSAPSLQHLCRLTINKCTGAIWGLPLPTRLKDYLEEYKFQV
T1 sequence (Q15370 1-104 partner limits assumed): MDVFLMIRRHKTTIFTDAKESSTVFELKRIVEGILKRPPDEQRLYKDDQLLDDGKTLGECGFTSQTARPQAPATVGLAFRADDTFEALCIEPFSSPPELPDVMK
T1 sequence (Q15369 17-112 partner limits assumed): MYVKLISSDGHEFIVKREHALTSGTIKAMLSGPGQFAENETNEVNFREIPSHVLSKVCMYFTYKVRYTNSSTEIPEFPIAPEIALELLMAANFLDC

A word on the Ki: it is a dissociation constant, usually derived from enzyme kinetics or from competition with a known ligand. Lower therefore signals tighter binding. As usually defined, the Kd is the constant that tells how readily two partners part at equilibrium. Higher therefore signals lower affinity. For `O=C(CCl)Nc1cccc(CNC(=O)[C@H](Cc2ccc(OP(=O)(O)O)cc2)NC(=O)Cc2ccc(F)cc2)c1` [MN551], the Ki was 2200 nM. Further, for the setting “ITC KD, direct ITC, 298 K”, the Kd turned out to be 2180 ± 600 nM.
